Reference: patent US10174348B2, “Bacteria engineered for ester production” (priority 2013, dated 2019)
Converted amounts (≈) assume the structure as drawn. Blank lines part the entries; values can stand above or below the compound they belong to.

What was measured:
[1] = tested on: pyruvate dehydrogenase complex; assay: KDHC activity assay, negative control strain lysate; assay type: biochemical, E. coli; conditions: 25 mM 2-keto acid, 30° C.
Procedure: Cells were grown to an OD600 of ˜0.4 in 5 mL LB medium at 37° C., followed by adding 1 mM IPTG. Protein expression was performed at 30° C. for 2 h. Then 1.8 mL of cells were centrifuged at 16,000×g for 10 min, resuspended in 300 μL BugBuster Protein Extraction Reagent (Novagen), and incubated at room temperature for 20 min for cell lysis. Then samples were centrifuged for 20 min, 16,000×g, at 2° C. The soluble fractions were transferred to chilled 1.5 mL tubes, and the insoluble fractions were suspended in 200 μL BugBuster forming a slurry and kept on ice. KDHC activities were measured by following the conversion of 2-keto acids to acyl-CoA with NAD^+ at 340 nm at 30° C. using a Synergy H1 Hybrid Plate Reader (BioTek Instruments, Inc.). […] Protein concentrations were measured using 5× Advanced Protein Assay Reagent (Cytoskeleton Inc.). […]
To confirm the activity of KDHC, cell lysates from each strain were prepared and activity was tested in vitro with pyruvate, 2-ketovalerate, 2-ketoisovalerate, 3-methylketovalerate, or 4-methylketovalerate as substrate. Activity was measured by detecting the reduction of NAD^+ in the presence of CoA. […]

JCL260 = JCL260 without the acetate assimilating pathway; 10 g/L acetate
Procedure: (§1) Growth of strains in culture medium containing 10 g/L glucose, 10 g/L acetate, or 10 g/L glucose and 10 g/L acetate was compared. Cells were grown at 37° C. on a rotary shaker (250 rpm). Overnight cultures were grown in 3 mL Luria Broth containing appropriate antibiotics. The overnight cultures were inoculated 1% in 5 mL M9 minimal media (containing appropriate antibiotics and 1 mM IPTG) and labeled carbon source in 15-ml screw-cap tubes.
(§2) Next, the growth of JCL260 and AL2045, which contains ΔaceEF with and without the acetate assimilating pathway (ackA-pta), was compared (FIG. 21).

AL2045 = AL2045 with the acetate assimilating pathway (ackA-pta); 10 g/L acetate
Procedure: as §1, §2

[2] = cited from earlier work
[3] = Partitioning between hexadecane layer and culture during production; assay type: physicochemical; conditions: equal volume of hexadecane over the culture
Procedure: Cells were grown in 20 mL media in 250 mL screw-cap flasks at 37° C. until OD600 0.4, then 1 mM IPTG was added. […] Errors are SD (n=3). […] Then 20 mL of culture was transferred to a 250 mL screw-cap flask. […] The strong agitation at which the flask was shaking caused the hexadecane layer to become an emulsion with micelles of culture, but the majority of the culture layer underneath is discernible. The cultures were allowed to produce at 30° C. on a rotary shaker (250 rpm) for 24-96 h. […] For hexadecane layer assisted isobutyl acetate production, the centrifugation of the hexadecane samples separates the aqueous and hexadecane layer into two clear layers. […] The same volume of ethyl acetate (Sigma-Aldrich) as culture was added into the tubes to extract tetradecyl acetate and isobutyl isobutyrate after production at room temperature. These samples were mixed for 1 min and settled for 30 min on ice. The each sample was centrifuged with 20,000×g for 1 min. Then, 1 mL of supernatant was taken for GC analysis.

E. coli JCL260 = assay: Effect of isobutyl acetate on E. coli growth (toxicity experiments); assay type: cell-based; conditions: 3 g L^−1 isobutyl acetate; JCL260, 30° C., M9P with 50 g L^−1 glucose
Procedure: JCL260 was grown at 30° C. in 5 mL M9P media containing 50 g L^−1 glucose in 15 mL screw-cap tubes. Black Arrow indicates the time point when isobutyl acetate: none (light gray), 1 g L^−1 (black), or 3 g L^−1 (dark gray) was added into culture. Error bars are SD (n=3).
This strain produced 4.5-fold more isobutyl acetate (2.7 g L^−1) in the first 24 h compared to JCL260 (FIG. 12b-c). This production represents 60% of the theoretical maximum yield (0.42 g isobutyl acetate/g glucose).

Structure (SMILES): CCCC(=O)C(=O)O [2-ketovalerate]
activity of negative control strain with 2-keto acid as substrate [1]: 30 nmol NADH/min/mg protein

Structure (SMILES): CC(=O)O [Acetate]
effect of acetate on growth (JCL260): inhibited the growth
effect of acetate on growth (AL2045): enhanced the growth

Structure (SMILES): CC(C)COC(=O)C(C)C [Isobutyl isobutyrate, isobutyl isobutyrate]
water solubility [2]: 520 µg/mL (≈ 3.61 mM)

remained in the culture [3]: 86%
Structure (SMILES): CC(C)CO [isobutanol]

Structure (SMILES): CC(=O)OCC(C)C [isobutyl acetate]
extracted into the hexadecane [3]: 97%
E. coli growth in the presence of isobutyl acetate (E. coli JCL260): unable to grow
